In ChEMBL document CHEMBL1201862, “PubChem BioAssay data set” (2004):
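Following 48 hours of exposure in 96-well plates, responses at five concentrations were used to interpolate endpoints linearly. GI50 marks 50% less growth.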 The source made the active and inactive calls. No stated cut-off is given here; in the data, active = GI50 up to about 1.1 µM and inactive = higher. Where a SMILES comes first, the peptide text is derived from it. The star is where a group is joined. Fmoc = O=C(OCC1c2ccccc2-c2ccccc21)*; Boc = CC(C)(C)OC(=O)*

How the values were obtained:
Assay in all cases: NCI tumour cell line growth inhibition, 48 h
UACC-257 = tested on: UACC-257
MDA-N = tested on: MDA-N
OVCAR-8 = tested on: OVCAR-8
MDA-MB-231 = tested on: MDA-MB-231
MOLT-4 = tested on: MOLT-4
HCT-116 = tested on: HCT-116
T47D = tested on: T47D
PC-3 = tested on: PC-3
COLO 205 = tested on: COLO 205
EKVX = tested on: EKVX
SK-OV-3 = tested on: SK-OV-3
SNB-75 = tested on: SNB-75
A549 = tested on: A549
SR = tested on: SR
Malme-3M = tested on: Malme-3M
SN12C = tested on: SN12C
NCI-H522 = tested on: NCI-H522
SF-295 = tested on: SF-295
OVCAR-4 = tested on: OVCAR-4

Measured: GI50

O=C1N[C@H]2c3c(Cl)sc(Cl)c3[C@@H](O)[C@H]2O1
inactive: UACC-257 > 100 µM | MDA-N > 100 µM | OVCAR-8 > 100 µM | MDA-MB-231 > 100 µM | MOLT-4 > 100 µM | HCT-116 > 100 µM | T47D > 100 µM | PC-3 > 100 µM | COLO 205 > 100 µM | EKVX > 100 µM | SK-OV-3 > 100 µM | SNB-75 > 100 µM | A549 > 100 µM | SR > 100 µM | Malme-3M > 100 µM | SN12C > 100 µM

CC(C(=O)NCNC(=O)c1ccccc1)C(=O)NCc1ccccc1 (centres undefined)
inactive: NCI-H522 99.3 µM | UACC-257 > 100 µM | MDA-N > 100 µM | OVCAR-8 > 100 µM | MDA-MB-231 > 100 µM | MOLT-4 > 100 µM | HCT-116 > 100 µM | T47D > 100 µM | PC-3 > 100 µM | COLO 205 > 100 µM | EKVX > 100 µM | SK-OV-3 > 100 µM | SNB-75 > 100 µM | A549 > 100 µM | SF-295 > 100 µM | SR > 100 µM | Malme-3M > 100 µM | SN12C > 100 µM

CN(C)CCOc1ccc(-c2c(Oc3ccccc3)c(=O)oc3ccccc23)cc1
inactive: NCI-H522 11.3 µM | UACC-257 6.67 µM | MDA-N 2.19 µM | OVCAR-8 15.6 µM | MDA-MB-231 4.93 µM | MOLT-4 4.13 µM | HCT-116 4.83 µM | T47D 12.7 µM | PC-3 9.93 µM | COLO 205 11 µM | EKVX 13.9 µM | SNB-75 9.59 µM | A549 4.15 µM | SF-295 4.42 µM | SR 2.83 µM | Malme-3M 12.2 µM | OVCAR-4 27.2 µM | SN12C 14 µM

CCc1nc(N)nc(N)c1-c1ccc(Cl)c(/N=C/N(C)C)c1
inactive: NCI-H522 24.1 µM | UACC-257 > 100 µM | MDA-N 45.9 µM | OVCAR-8 44.4 µM | MDA-MB-231 81.3 µM | MOLT-4 34.8 µM | HCT-116 10.3 µM | T47D 77.3 µM | PC-3 25.9 µM | COLO 205 65 µM | EKVX > 87.3 µM | SK-OV-3 > 100 µM | SNB-75 > 96.4 µM | A549 15.3 µM | SF-295 41.1 µM | SR 31.1 µM | OVCAR-4 72.3 µM | SN12C 91.4 µM

COC1OC(Cn2c(C)nc(Br)c2Br)C(O)C(O)C1O (centres undefined)
inactive: NCI-H522 > 100 µM | UACC-257 > 100 µM | MDA-N > 100 µM | OVCAR-8 > 100 µM | MDA-MB-231 > 100 µM | MOLT-4 > 100 µM | HCT-116 > 100 µM | T47D > 100 µM | PC-3 > 100 µM | COLO 205 > 100 µM | EKVX > 100 µM | SK-OV-3 > 100 µM | SNB-75 > 100 µM | A549 > 100 µM | SF-295 > 100 µM | SR > 10 µM | Malme-3M > 100 µM | OVCAR-4 > 100 µM

O=C(Nc1ccn(C2CCC(CO)O2)c(=O)n1)c1ccccc1 (centres undefined)
inactive: NCI-H522 > 100 µM | UACC-257 > 100 µM | MDA-N > 100 µM | OVCAR-8 > 100 µM | MDA-MB-231 > 100 µM | MOLT-4 > 100 µM | HCT-116 > 100 µM | T47D > 100 µM | PC-3 > 100 µM | COLO 205 > 100 µM | EKVX > 100 µM | SK-OV-3 > 100 µM | SNB-75 79.6 µM | A549 > 100 µM | SF-295 > 100 µM | SR > 100 µM | Malme-3M > 100 µM | SN12C > 100 µM

COC(=O)C1(Cc2ccc3c(c2)CCC3)Cc2cc3c(cc2C1)CCC3
inactive: NCI-H522 22.1 µM | UACC-257 19.5 µM | MDA-N 40.6 µM | OVCAR-8 54.2 µM | MDA-MB-231 22.9 µM | MOLT-4 29.8 µM | HCT-116 35.1 µM | T47D 21.4 µM | PC-3 46 µM | COLO 205 38.5 µM | EKVX 45.2 µM | SK-OV-3 > 100 µM | SNB-75 46.6 µM | A549 28.6 µM | SF-295 33.3 µM | SR 78.7 µM | OVCAR-4 32.2 µM | SN12C 50.5 µM

CCOC(=O)C1=C(C)NC(C)=C(C(=O)OCC)C1c1ccc(Cl)cc1
inactive: NCI-H522 16 µM | UACC-257 13.4 µM | MDA-N 13.2 µM | OVCAR-8 16.1 µM | MDA-MB-231 15.3 µM | MOLT-4 6.1 µM | HCT-116 9.14 µM | T47D 15.6 µM | PC-3 14.9 µM | COLO 205 16.3 µM | EKVX 16.8 µM | SK-OV-3 16.7 µM | SNB-75 18.7 µM | A549 15.4 µM | SF-295 12.7 µM | Malme-3M 18.1 µM | OVCAR-4 12.5 µM | SN12C 19.4 µM

CC(C)(C)OC(=O)NCCCCC(NC(=O)OCC1c2ccccc2-c2ccccc21)C(=O)N1CCCC1C(=O)NCC(N)=O (stereo not drawn) (Fmoc-Lys(Boc)-Pro-Gly-NH2; configuration not given here)
inactive: UACC-257 > 100 µM | MDA-N 19.3 µM | OVCAR-8 66.5 µM | MDA-MB-231 46.7 µM | MOLT-4 29.5 µM | HCT-116 36.6 µM | T47D 24.7 µM | PC-3 27.9 µM | COLO 205 28.4 µM | EKVX 76.2 µM | SK-OV-3 2.17 µM | SNB-75 7.6 µM | A549 51.4 µM | SF-295 78.3 µM | SR 21.1 µM | Malme-3M 18.3 µM | OVCAR-4 23.2 µM | SN12C 16.2 µM

c1ccc(-c2nc(-c3ccccc3SSc3ccccc3-c3nc(-c4ccccc4)nn3-c3ccccc3)n(-c3ccccc3)n2)cc1
inactive: MDA-N > 100 µM | OVCAR-8 > 100 µM | MDA-MB-231 > 100 µM | MOLT-4 > 100 µM | HCT-116 > 100 µM | T47D > 100 µM | PC-3 > 100 µM | COLO 205 > 100 µM | EKVX > 100 µM | SK-OV-3 > 100 µM | SNB-75 > 100 µM | A549 > 100 µM | SF-295 > 100 µM | SR > 100 µM | Malme-3M > 100 µM | SN12C > 100 µM

O=[N+]([O-])/C(C(Cl)=C(Cl)Cl)=C(/Nc1ccccc1)Sc1ccccc1
inactive: NCI-H522 16.2 µM | UACC-257 16.6 µM | MDA-N 24.9 µM | OVCAR-8 17.7 µM | MDA-MB-231 15.7 µM | MOLT-4 19.8 µM | HCT-116 18.5 µM | T47D 19.7 µM | PC-3 18.5 µM | COLO 205 18.5 µM | EKVX 19.6 µM | SK-OV-3 20.1 µM | A549 23.4 µM | SF-295 16.5 µM | SR 20.7 µM | Malme-3M 15.9 µM | OVCAR-4 19.7 µM | SN12C 26.9 µM
